Here are results for 17 compounds from patent US20250084079A1, “COMPOSITIONS AND METHODS FOR INHIBITION OF RAS” (TheRas, Inc., priority 2022, published 2025).

Read-outs that look alike come from different tables or passages of the source.

Assay [1] addresses T1, Avi-KRAS WT (1-169) GppNHp/RAF1 RBD-3xFLAG (52-151) (Homo sapiens, UniProt P01116).
T1 construct: 50 nM Avi-KRAS WT (1-169) GppNHp
The assay can be described thus: RAS-effector PPI HTRF disruption assay, Raf1-GppNHp-KRAS WT. It is filed as biochemical. How it is done:
(§1) A protein:protein interaction (PPI) Homogeneous Time Resolved Fluorescence (HTRF) assay was used to determine the effectiveness of compounds of the present disclosure in disrupting KRAS protein and effector (RAF1 or PIK3 CA) binding.
(§2) The HTRF assay used the following reagents and proteins: (i) 375 nM Avi-KRAS G12D/Q25A (1-169) GppNHp/3×FLAG-PI3KCA (157-299); (ii) 100 nM Avi-KRAS G12D (1-169) GppNHp/RAF1 RBD-3×FLAG (52-151); (iii) 50 nM Avi-KRAS G12V (1-169) GppNHp/RAF1 RBD-3×FLAG (52-151); (iv) 50 nM Avi-KRAS WT (1-169) GppNHp/RAF1 RBD-3×FLAG (52-151); and (v) 35 nM Avi-PI3K RBD CA-3×FLAG; Assay Buffer: 50 mM Tris pH 7.5, 100 mM NaCl, 5 mM MgCl2, 0.1% BSA, 0.01% Tween, 1 mM TCEP, 10% DMSO; Bead Buffer: 50 mM Tris pH 7.5, 0.01% Tween 20; Assay volume: 20 μL (384 well plate-low volume format); and Compound titration: 100-0.02 μM, 3× dilution series.
(§3) The HTRF assay employed the following protocol:
(§4) Compounds were dispensed in assay plate (384-well, Grenier Bione #784075) using Echo (model 555) with dose response settings: 200 nL final volume, titration from 100 μM as a 10-point dilution series. Protein mix was prepared in assay buffer, and dispensed on plates, 10 μL per well, then incubated for 1 h at room temperature, with 700 rpm shaking. Reagents mix was prepared and dispensed on plates, 10 μL per well, then incubated for 1 h at room temperature, with 700 rpm shaking.
(§5) Plates were analyzed on an Envision plate reader using the following setting: Excitation 320 nm, Bandwidth […]; Emission 615 nm, Bandwidth […], Gain 100%, Flashes 100, Lag 60 μs. Data was reported as percentage of activity, with DMSO as 100%. Data was plotted and analyzed using Prism 8. The SPR Kd, biochemical Raf1-KRAS G12D/G12V/WT-GppNHP and PI3KCA-KRAS G12D/Q25A-GppNHp disruption assay IC50 of selected compounds described herein are shown in Table 4.
Background: TR-FRET usually uses a lanthanide donor and a delayed reading to cut background.

Assay [2] deals with T2, Avi-KRAS G12V (1-169) GppNHp/RAF1 RBD-3xFLAG (52-151) (Homo sapiens, UniProt P01116, G12V).
T2 construct: 50 nM Avi-KRAS G12V (1-169) GppNHp
Put plainly: RAS-effector PPI HTRF disruption assay, Raf1-GppNHp-KRAS G12V. The assay is classed as biochemical. The protocol: as §1, §2, §3, §4, §5

The target in assay [3] is T3, Avi-KRAS G12D/Q25A (1-169) GppNHp/3xFLAG-PI3KCA (157-299) (Homo sapiens, UniProt P01116, G12D/Q25A).
T3 construct: 375 nM Avi-KRAS G12D/Q25A (1-169) GppNHp
Put plainly: RAS-effector PPI HTRF disruption assay, PI3KCA-GppNHp-KRAS G12D/Q25A. It is filed as biochemical. The protocol:
as §1, §2, §3, §4, §5

Assay [4] relates to pERK in GP2d cells (KRAS G12D). Put plainly: Cell-based pERK HTRF assay in GP2d cell. Particulars: 60 min incubation. How it is done: A pERK assay (Perkin Elmer) was used to determine the effectiveness of compounds in disrupting KRAS G12D protein/effector signaling in cells.
On Day 1, cells (GP2d) were seeded into 96-well plates at 3×10^4 cells/well in 80 μL complete growth media (DMEM, 10% FBS).
On Day 2, cells were treated with compounds at 0.25% DMSO. The source plate was created with compounds diluted in media at 5-fold the final assay concentration. The compounds were run in a 9-point concentration curve starting at 1 μM, with a half-log dilution between concentrations. 20 μL was transferred onto the cell plates (final volume in wells was 100 μL). Plates were harvested after 60 min incubation by aspirating media and adding kit-supplied 1× supplemented lysis buffer to all wells (50 μL per well). Plates were then placed on a plate shaker and incubated at 850 rpm for an additional 30 min.
Antibody mixture solution is prepared by diluting aliquoted d2 and Eu Cryptate antibodies 1:20 in kit supplied detection buffer, mix the diluted antibodies solutions (1:1 v:v). 4 μL of this solution is then added to a 384-well detection plate (Perkin Elmer; 6008230).
Samples were homogenized by pipetting up and down and then transferred (16 μL of cell lysates) from the 96-well cell culture plate to two wells of the HTRF 384-well detection plate containing the antibody solution. Plates were centrifuged (524 g for 1 min) and allowed to incubate between 4 and 24 h at room temperature. Maximum signal is reached after 4 h incubation time and remains stable over a period of 24 hours. Therefore, readings can be made between 4 and 24 h of incubation. Plates were centrifuged again (524 g for Imin), then analyzed on the EnVision plate reader using the following settings: Excitation 320 nm, Bandwidth 75 nm; Emission 615 nm, Bandwidth 85 nm; Gain 100%; Flashes 100; Lag 60 μs.

The target of assay [5] is T4, Avi-KRAS G12D (1-169) GppNHp/RAF1 RBD-3xFLAG (52-151) (Homo sapiens, UniProt P01116, G12D).
T4 construct: 100 nM Avi-KRAS G12D (1-169) GppNHp
The assay can be described thus: RAS-effector PPI HTRF disruption assay, Raf1-GppNHp-KRAS G12D. It is filed as biochemical. How it is done: as §1, §2, §3, §4, §5

T2 sequence (P01116 1-169 isoform P01116-2 G12V): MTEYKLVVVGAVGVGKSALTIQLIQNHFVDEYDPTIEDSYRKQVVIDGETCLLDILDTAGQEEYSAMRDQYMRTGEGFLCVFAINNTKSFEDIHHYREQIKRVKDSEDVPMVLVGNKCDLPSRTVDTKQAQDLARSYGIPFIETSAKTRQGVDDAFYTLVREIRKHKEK
T4 sequence (P01116 1-169 isoform P01116-2 G12D): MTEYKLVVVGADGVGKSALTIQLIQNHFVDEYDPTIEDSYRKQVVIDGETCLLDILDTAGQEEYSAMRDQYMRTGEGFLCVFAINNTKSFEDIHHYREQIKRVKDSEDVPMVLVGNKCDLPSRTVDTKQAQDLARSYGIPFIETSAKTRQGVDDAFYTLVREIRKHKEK
T3 sequence (P01116 1-169 isoform P01116-2 G12D/Q25A): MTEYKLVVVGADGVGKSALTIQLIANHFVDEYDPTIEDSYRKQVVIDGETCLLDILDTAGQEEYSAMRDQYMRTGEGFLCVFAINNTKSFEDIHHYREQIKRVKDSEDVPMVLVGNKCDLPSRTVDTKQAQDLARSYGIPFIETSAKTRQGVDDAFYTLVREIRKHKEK
T1 sequence (P01116 1-169 isoform P01116-2): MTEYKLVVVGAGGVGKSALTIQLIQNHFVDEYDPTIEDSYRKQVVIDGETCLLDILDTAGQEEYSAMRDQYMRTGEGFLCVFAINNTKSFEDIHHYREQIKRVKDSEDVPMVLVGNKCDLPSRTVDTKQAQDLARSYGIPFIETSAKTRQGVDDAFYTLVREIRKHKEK

Regarding `N#Cc1c(N)sc2c(F)ccc(-c3c(Cl)cc4c(O[C@H]5CCN[C@@H]5CO)nc(OC[C@@]56CCCN5C[C@H](F)C6)nc4c3F)c12` (atropisomer, axis not shown) [Compound 76], the IC50 in assay [1], in assay [2], in assay [3], in assay [4] (read-out: pERK-Gp2D-1 hr) and in assay [5] was ≤ 0.1 µM throughout.

`C[C@H]1NCC[C@H]1Oc1nc(OC[C@@]23CCCN2C[C@H](F)C3)nc2c(F)c(-c3ccc(F)c4sc(N)c(C#N)c34)c(C(F)(F)F)cc12` (single isomer, unassigned) [Compound 73]: the IC50 in assay [1], in assay [2], in assay [3], in assay [4] (read-out: pERK-Gp2D-1 hr) and in assay [5] was ≤ 0.1 µM throughout.

`C[C@H]1NCC[C@H]1Oc1nc(OC[C@@]23CCCN2C[C@H](F)C3)nc2c(F)c(-c3ccc(F)c4sc(N)c(C#N)c34)c(C(F)(F)F)cc12` (single isomer, unassigned) [Compound 74]: the IC50 in assay [1] is > 10 µM; in assay [2], > 10 µM; in assay [3], > 10 µM; in assay [4] (read-out: pERK-Gp2D-1 hr), > 1 µM; in assay [5], > 10 µM.

For the compound `C[C@H]1CNCC1Oc1nc(OC[C@@]23CCCN2C[C@H](F)C3)nc2c(F)c(-c3ccc(F)c4scnc34)c(C(F)(F)F)cc12` (stereo partly shown) [Compound 12], the IC50 was > 10 µM in assay [1]; > 10 µM in assay [2]; > 10 µM in assay [3]; > 1 µM in assay [4] (GP2d, 1 h); > 10 µM in assay [5].

Turning to `Nc1nc2c(-c3c(C(F)(F)F)cc4c(O[C@H]5CCNC5)nc(OC[C@@]56CCCN5C[C@H](F)C6)nc4c3F)ccc(F)c2s1` [Compound 13], the IC50 in assay [1] is 0.1 to 1 µM; in assay [2] it was 1 to 10 µM; in assay [3], 1 to 10 µM; in assay [4] (GP2d, 1 h) it was ≤ 0.1 µM; in assay [5], 0.1 to 1 µM.

Consider `C[C@@H]1CNCC1Oc1nc(OC[C@@]23CCCN2C[C@H](F)C3)nc2c(F)c(-c3ccc(F)c4scnc34)c(C(F)(F)F)cc12` (stereo partly shown) [Compound 14], for which the IC50 in assay [1] is > 10 µM; in assay [2], > 10 µM; in assay [3] it was > 10 µM; in assay [4] (GP2d, 1 h), > 1 µM; in assay [5] it was > 10 µM.

Turning to `C[C@@H]1CNCC1Oc1nc(OC[C@@]23CCCN2C[C@H](F)C3)nc2c(F)c(-c3ccc(F)c4sc(N)nc34)c(C(F)(F)F)cc12` (stereo partly shown) [Compound 15], the IC50 in assay [1] is 1 to 10 µM; in assay [2], 1 to 10 µM; in assay [3] it was 1 to 10 µM; in assay [4] (GP2d, 1 h), 0.1 to 1 µM; in assay [5], 0.1 to 1 µM.

With `C[C@@H]1CNCC1Oc1nc(OC[C@@]23CCCN2C[C@H](F)C3)nc2c(F)c(-c3ccc(F)c4sc(N)nc34)c(C(F)(F)F)cc12` (stereo partly shown) [Compound 16], the IC50 fell in the range of 1 to 10 µM in assay [1]; 1 to 10 µM in assay [2]; 1 to 10 µM in assay [3]; 0.1 to 1 µM in assay [4] (read-out: pERK-Gp2D-1 hr); 1 to 10 µM in assay [5].

Regarding `C[C@H]1NCC[C@H]1Oc1nc(OC[C@@]23CCCN2C[C@H](F)C3)nc2c(F)c(-c3ccc(F)c4scnc34)c(C(F)(F)F)cc12` [Compound 23], the IC50 in assay [1] was > 10 µM; in assay [2], > 10 µM; in assay [3], > 10 µM; in assay [4] (GP2d, 1 h) it was > 1 µM; in assay [5] it was > 10 µM.

With `Nc1nc2c(-c3ncc4c(O[C@@H]5CCNC5)nc(OC[C@@]56CCCN5C[C@H](F)C6)nc4c3F)ccc(F)c2s1` [Compound 24, 7-fluoro-4-(8-fluoro-2-(((2R,7aS)-2-fluorotetrahydro-1H-pyrrolizin-7a(5H)-yl)methoxy)-4-(((R)-pyrrolidin-3-yl)oxy)pyrido[4,3-d]pyrimidin-7-yl)benzo[d]thiazol-2-amine], the IC50 is > 10 µM in assay [1]; > 10 µM in assay [2]; > 10 µM in assay [3]; > 1 µM in assay [4] (GP2d, 1 h); > 10 µM in assay [5].

As for `C[C@H]1NCC[C@H]1Oc1nc(OCC23CCCN2C[C@H](F)C3)nc2c(F)c(-c3ccc(F)c4sc(N)nc34)c(C(F)(F)F)cc12` (stereo partly shown) [Compound 25], the IC50 in assay [1] is 0.1 to 1 µM; in assay [2] it was 1 to 10 µM; in assay [3] it was 0.1 to 1 µM; in assay [4] (GP2d, 1 h) it was ≤ 0.1 µM; in assay [5], 0.1 to 1 µM.

As to `CC1(C)NCC[C@H]1Oc1nc(OC[C@@]23CCCN2C[C@H](F)C3)nc2c(F)c(-c3ccc(F)c4sc(N)nc34)c(C(F)(F)F)cc12` [Compound 27], the IC50 in assay [1] was 1 to 10 µM; in assay [2], 1 to 10 µM; in assay [3], > 10 µM; in assay [4] (GP2d, 1 h), 0.1 to 1 µM; in assay [5], 0.1 to 1 µM.

Consider `Nc1nc2c(-c3c(C(F)(F)F)cc4c(O[C@H]5CNCC5(F)F)nc(OC[C@@]56CCCN5C[C@H](F)C6)nc4c3F)ccc(F)c2s1` [Compound 28], for which the IC50 in assay [1] was 1 to 10 µM; in assay [2], > 10 µM; in assay [3], > 10 µM; in assay [4] (read-out: pERK-Gp2D-1 hr), 0.1 to 1 µM; in assay [5], 1 to 10 µM.

As for `Nc1nc2c(-c3cc4nc(OC[C@@]56CCCN5C[C@H](F)C6)nc(O[C@H]5CNC[C@@H]5F)c4cc3C(F)(F)F)ccc(F)c2s1` [Compound 30], the IC50 in assay [1] is > 10 µM; in assay [2] it was > 10 µM; in assay [3], > 10 µM; in assay [4] (GP2d, 1 h), > 1 µM; in assay [5], 1 to 10 µM.

As to `Nc1nc2c(-c3cc4nc(OC[C@@]56CCCN5C[C@H](F)C6)nc(O[C@H]5CNC[C@H]5F)c4cc3C(F)(F)F)ccc(F)c2s1` [Compound 31], the IC50 was > 10 µM in assay [1]; > 10 µM in assay [2]; > 10 µM in assay [3]; > 1 µM in assay [4] (GP2d, 1 h); 1 to 10 µM in assay [5].

With `Nc1nc2c(-c3ncc4c(O[C@@H]5CCNC5)nc(OC[C@@]56CCCN5C[C@H](F)C6)nc4c3F)c(F)cc(F)c2s1` [Compound 32], the IC50 in assay [1] is > 10 µM; in assay [2], > 10 µM; in assay [3] it was > 10 µM; in assay [4] (GP2d, 1 h), > 1 µM; in assay [5], > 10 µM.

Turning to `Nc1nc2c(-c3c(C(F)(F)F)cc4c(O[C@H]5CNC[C@@H]5F)nc(OC[C@@]56CCCN5C[C@H](F)C6)nc4c3Cl)ccc(F)c2s1` [Compound 33], the IC50 was 1 to 10 µM in assay [1]; > 10 µM in assay [2]; 1 to 10 µM in assay [3]; 0.1 to 1 µM in assay [4] (GP2d, 1 h); 1 to 10 µM in assay [5].
